Results taken from ChEMBL document CHEMBL1201862, “PubChem BioAssay data set” (2004).
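Where inhibition never reached the appropriate level, the endpoint shown equals the highest concentration tested. Otherwise, values were interpolated linearly from a five-concentration, 48-hour dose response in 96-well plates. GI50 marks 50% less growth.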 Calls of active or inactive are those of the source. Cut-off read from the data, not from the text of the source: active = GI50 up to about 1.1 µM and inactive = higher.

Legend:
Assay in all cases: NCI-60 cell line screen, 48 h
SN12C = system: SN12C
786-0 = system: 786-0
HCC 2998 = system: HCC 2998
SF-295 = system: SF-295
SNB-19 = system: SNB-19
COLO 205 = system: COLO 205
HOP-92 = system: HOP-92
OVCAR-5 = system: OVCAR-5
NCI-H226 = system: NCI-H226
KM12 = system: KM12
NCI/ADR-RES = system: NCI/ADR-RES
SW-620 = system: SW-620
MOLT-4 = system: MOLT-4
HL-60 = system: HL-60
UACC-62 = system: UACC-62
CAKI-1 = system: CAKI-1
U-251 = system: U-251
SK-MEL-2 = system: SK-MEL-2
BT-549 = system: BT-549

Measured: GI50

CC1(C)C=C(/C=N/Nc2ccc(Br)cc2)C(C#N)=C(O)C1(C#N)C#N
inactive: SN12C 59.8 µM | 786-0 47.2 µM | HCC 2998 24.5 µM | SF-295 > 100 µM | SNB-19 > 100 µM | COLO 205 19.8 µM | HOP-92 22.4 µM | OVCAR-5 > 100 µM | NCI-H226 88.3 µM | KM12 29.9 µM | NCI/ADR-RES 45.2 µM | SW-620 36.5 µM | MOLT-4 29.2 µM | HL-60 26.1 µM | UACC-62 38.7 µM | CAKI-1 36.1 µM

COc1ccc(C2S/C(=C\c3cccc(OC)c3)C(=O)N2NC(=O)Cc2ccccc2)cc1 (stereo not given)
inactive: SN12C > 100 µM | 786-0 > 100 µM | SF-295 > 100 µM | U-251 > 100 µM | COLO 205 > 100 µM | HOP-92 > 100 µM | OVCAR-5 > 100 µM | NCI-H226 94.8 µM | SK-MEL-2 > 100 µM | KM12 > 100 µM | SW-620 > 100 µM | MOLT-4 > 100 µM | HL-60 > 100 µM | UACC-62 > 100 µM | CAKI-1 > 100 µM

CCOC(=O)c1c(N2CCOCC2)[nH]c(=O)c(C(c2ccc(OC)cc2)c2c(O)c(C(=O)OCC)c(N3CCOCC3)[nH]c2=O)c1O
inactive: SN12C > 100 µM | 786-0 > 100 µM | HCC 2998 > 100 µM | SF-295 > 100 µM | SNB-19 > 100 µM | U-251 > 100 µM | COLO 205 > 100 µM | HOP-92 > 100 µM | OVCAR-5 > 100 µM | NCI-H226 > 100 µM | BT-549 > 100 µM | KM12 > 100 µM | NCI/ADR-RES > 100 µM | SW-620 > 100 µM | MOLT-4 > 100 µM | UACC-62 > 100 µM | CAKI-1 > 100 µM

CCCCCCCCOCC(COC(=O)CCCCCCC)OC(=O)CCCCCCC (stereo not given)
inactive: SN12C > 100 µM | 786-0 > 100 µM | HCC 2998 > 100 µM | SF-295 > 100 µM | SNB-19 > 100 µM | U-251 > 100 µM | COLO 205 > 100 µM | HOP-92 51.5 µM | OVCAR-5 > 100 µM | NCI-H226 > 100 µM | SW-620 > 100 µM | MOLT-4 > 100 µM | HL-60 > 100 µM | UACC-62 > 100 µM | CAKI-1 > 100 µM

SCCCSCCSCCCSCCS
inactive: SN12C > 100 µM | 786-0 > 100 µM | HCC 2998 > 100 µM | SF-295 > 100 µM | SNB-19 > 100 µM | U-251 > 100 µM | COLO 205 > 100 µM | OVCAR-5 > 100 µM | BT-549 > 100 µM | KM12 > 100 µM | NCI/ADR-RES > 100 µM | SW-620 > 100 µM | MOLT-4 33.2 µM | HL-60 13.3 µM | UACC-62 > 100 µM

COc1cc2c(cc1OCCCCOc1cc3c(cc1OC)C(=O)N1CCC[C@H]1C(=O)N3)N=C[C@@H]1CCCN1C2=O
inactive: SN12C 9.75 µM | 786-0 13.2 µM | HCC 2998 11.7 µM | SF-295 12.5 µM | SNB-19 8.18 µM | U-251 3.93 µM | COLO 205 2.55 µM | OVCAR-5 13.1 µM | NCI-H226 13.5 µM | BT-549 4.44 µM | SK-MEL-2 5.57 µM | KM12 5.02 µM | NCI/ADR-RES 13.4 µM | SW-620 3.29 µM | MOLT-4 2.27 µM | HL-60 9.18 µM | UACC-62 3.35 µM | CAKI-1 11.6 µM

CC[C@H](CC[C@@H](C)[C@H]1CC[C@H]2[C@@H]3CC=C4C[C@@H](O)CC[C@]4(C)[C@H]3CC[C@]12C)C(C)C [BETA-SITOSTEROL]
inactive: SN12C > 100 µM | 786-0 > 100 µM | HCC 2998 > 100 µM | SF-295 > 100 µM | SNB-19 > 100 µM | U-251 > 100 µM | COLO 205 > 100 µM | HOP-92 > 100 µM | OVCAR-5 > 100 µM | NCI-H226 > 100 µM | SK-MEL-2 > 100 µM | KM12 > 100 µM | NCI/ADR-RES > 100 µM | SW-620 > 100 µM | MOLT-4 > 100 µM | HL-60 > 10 µM | CAKI-1 > 100 µM

CNc1c2c(c3nc4ccccc4c4c3c1N=C4)NCCC2=O [PLAKINIDINE A]
inactive: SN12C 4.22 µM | 786-0 2.41 µM | HCC 2998 5.08 µM | SF-295 4.5 µM | SNB-19 > 10 µM | U-251 5.87 µM | COLO 205 2.82 µM | HOP-92 4.51 µM | OVCAR-5 5.83 µM | NCI-H226 7.43 µM | BT-549 7.74 µM | SK-MEL-2 > 10 µM | KM12 4.79 µM | NCI/ADR-RES 2.83 µM | SW-620 2.44 µM | MOLT-4 1.32 µM | CAKI-1 4.69 µM
